{"source": "patent US9944591B2", "about": "“Active compound and related composition for dermatological use in the pharmaceutical or cosmetic field” (GIULIANI S.P.A., priority 2014, dated 2018)", "key": {"[1]": {"test_system": "ROS (reactive oxygen species)", "experiment": "Production of ROS by DCFH-DA assay (H2O2-induced oxidative stress)", "assay_type": "cell-based, human"}, "TNF-α": {"test_system": "TNF-α", "experiment": "Anti-inflammatory effects through gene expression of TNF-alpha on keratinocytes (qRT-PCR)", "assay_type": "cell-based", "conditions": "human keratinocytes NCTC 2544, 5 μM, 24 h, LPS 5 μg/ml; FIG. 3", "experimental": "In such further test, an immortalized line of human keratinocytes NCTC 2544 is used (Perry V. P. et al., 1957) cultured in sterile flasks ([…]), incubated at 37° C. in a humid atmosphere at 5% CO2 in culture medium MEM (Minimum Essential Medium) supplemented with 10% fetal bovine serum (FBS), 2 mM glutamine, 1% non-essential amino acids, in the presence of 1% penicillin and streptomycin.\nWhen the cells (human keratinocytes NCTC 2544) reached about 80% confluence, they were detached with trypsin/EDTA and seeded at a density of 1×10^6 cells/ml in 12-well plates and incubated at 37° C., 5% CO2 (24 h). […]\nThe effect of the compounds object of the study on the gene expression of TNF-α was evaluated by quantitative RT-PCR (quantitative reverse transcription-polymerasechainreaction-qRT-PCR). […]\nUsing a spectrophotometer (Jenway UV/VIS MOD: 6715, BS-6715B0), concentrations were calculated in μg/mL of total RNA extracted at a wavelength of 260 nm.\n(§1) Finally, the integrity of RNA (2 μg/mL) was assessed by means of an electrophoresis run on 1% agarose gel. […]\n(§2) Extracted and quantified RNA was diluted to a concentration of 2 μg/mL and reverse transcribed into cDNA. […]"}, "[2]": {"test_system": "HAS1 (Hyaluronan Synthase 1)", "experiment": "Gene expression of HAS1 (hyaluronan synthase 1) on fibroblasts (qRT-PCR)", "assay_type": "cell-based", "conditions": "BALB3T3 mouse fibroblasts, 24 h, 2.5 and 5 μM, FIG. 4", "experimental": "In this third test, the mouse fibroblast cell line Balb 3T3 Clone A31 (ATCC CCL-163™) (Aaronson and Todaro, 1968) was used, cultured in sterile flasks ([…]), incubated at 37° C. in a humid atmosphere at 5% CO2 in DMEM (Dulbecco's Modified Eagle's Medium) added with 10% bovine fetal serum (CBS), 1% non-essential amino acids, in the presence of 1% penicillin and streptomycin.\nThe 1:3 split is done every 2 days upon achieving the monolayer by washing with 1×PBS (phosphate buffer without Ca^2+ and Mg^2+) and detachment of cells with a trypsin-EDTA solution at 37° C. for 2 minutes. […]\nGene expression of HAS1 in BALB3T3 cells was evaluated by relative quantitative RT-PCR (quantitative reverse transcription-polymerase chain reaction-qRT-PCR). […]\nAt the end of incubation with the active compounds of interest, cells were washed with PBS (1×) and finally subjected to RNA extraction procedure. At the end of the extraction, using a spectrophotometer (Jenway UV/VIS MOD: 6715, BS-6715B0), concentrations were calculated in μg/mL of total RNA extracted at a wavelength of 260 nm.\nas §1, §2\nThe Taqman probe is a type of probe that allows the development of fluorescence as the amplification advances. […]"}}, "data": [{"smiles": "C/C=C/C=C/C=C/C(=O)NCCCC(=O)O", "note": "[compound of the invention, 4-((2E,4E,6E)-octa-2,4,6-trienamid)butanoic acid]", "values": [{"measurement": "% ROS produced/Ctr, compared to GABA", "setting": "[1]; human keratinocytes NCTC2544, 0.5 μM, versus comparison compound GABA at same concentration, FIG. 2", "value": "superior antioxidant activity"}, {"measurement": "% ROS produced/Ctr (antioxidant activity)", "setting": "[1]; human keratinocytes NCTC2544, 16 h pre-treatment at 0.5 μM, 1 μM, 5 μM, then 1 mM H2O2 90 min, FIG. 1", "value": "antioxidant activity"}, {"measurement": "gene expression of TNF-α (2-ΔΔCt) compared to positive control", "setting": "TNF-α", "value": "reduced expression of TNF-α"}, {"measurement": "gene expression of HAS1 compared to reference compound GABA", "setting": "[2]; versus GABA", "value": "higher than the reference compound at both concentrations tested"}, {"measurement": "gene expression of HAS1 (2^−ΔΔCt)", "setting": "[2]", "value": "increased gene expression of HAS1"}]}]}
